Test results published in US20040192889A1, “Cytotoxic peptides and peptidomimetics based thereon, and methods for use thereof” (priority 2001, published 2004).
“Also recorded” adds a separate entry of the source. Residues, ends and D or L forms follow the SMILES beside them. No end group written: not given here. *: point of attachment. Cbz = O=C(OCc1ccccc1)*; CH2F = FC*

Columns and labels:
N2a neuroblastoma cells = experiment: Annexin V-FITC staining of transfected N2a cells; format: cell-based, mouse; conditions: for relative risk (RR) of annexin V-FITC staining with expression / annexin V-positive among construct-positive cells: expression by transfection; for annexin V-positive among construct-positive cells: no tamoxifen or staurosporine, 24 h
Protocol: Mouse N2a neuroblastoma cells were grown at 37° C. and 5% CO2 in […] Dulbecco's modified Eagle's medium and 45% OptiMEM I (Life Technologies) supplemented with 10% fetal bovine serum and 2 mM glutamine. Plasmid constructs were introduced into the N2a cells with the LipofectAMINE plus transfection reagent (Life Technologies) according to the manufacturer's instructions.
N2a cells were plated on glass cover slips treated with polylysine and were transfected as described above. At 24 h after transfection, cells were directly stained with annexin V-FITC for apoptosis in tissue culture media, according to the manufacturer's instructions (annexin V-FITC Apoptosis Detection Kit; Calbiochem, La Jolla, Calif.). After being stained with annexin V-FITC, cells were fixed for 20 min in 4% parafoimaldehyde in phosphate-buffered saline and permeabilized in 0.5% Triton X-100 in phosphate-buffered saline for 5 min. After being blocked in 5% BSA in phosphate-buffered saline, the cells were incubated for 1 h at room temperature with CT15, diluted 1:2,000. In parallel, cells were stained with propidium iodide after annexin V staining and paraformaldehyde fixation but without permeabilization to verify membrane integrity; the combination of amnexin V staining and membrane integrity indicated apoptosis without secondary necrosis. The primary antibody was detected with Texas Red®-conjugated secondary antibody against rabbit (Molecular Probes, Eugene, Oreg.). Negative controls, which included preimmune serum and cells transfected with pcDNA3 (mock transfection), were assayed in parallel using the protocol described above. The cells were analyzed by confocal nmcroscopy using a BioRad MRC-1024 system. Cells in five random fields were counted for each slide, in duplicate for each condition. The number of cells positive and negative for APP or C31 and apoptosis (annexin V-FITC) were determined, and relative risk was calculated (RR=p1/p2)=concordant staining [(+/+) times (−/−)] divided by discordant staining [(+/−) times (−/+)].
Double-labeling of APP and annexin V in N2a cells after transfection was performed. N2a cells were transfected with either APP or C31 followed by staining with annexin V-FITC to visualize apoptotic cells. Transfected cells were immunolocalized with CT15 followed by Texas Red conjugated secondary antibody to visualize APP or C31 expression. When expressed in N2a cells, C31 but not APP is associated with apoptosis. A high proportion of C31 transfected cells are positive for amnexin V-FITC (green outline of the cell; RR=6.3), whereas in APP-expressing cells, annexin V-FITC staining is sparse (RR=0.77). In control cells transfected with pcDNA3 (mock transfection; control), there is no staining with annexin V-FITC and essentially no staining of endogenous APP at this antibody dilution. Images are representations of four different fields of view of each of three separate experiments.

glial cells = experiment: Toxicity of transduced peptides to glial cells in primary hippocampal cultures (GFAP immunostaining, quantitative image analysis); format: cell-based, rat
Protocol: (§1) Hippocampal or cortical neurons derived from 17-day old rat embryos were plated in modified minimum essential media (MEM-PAK) supplemented with 5% horse serum. Three days later, the cultures were treated with 10 μM cytosine arabinoside (AraC). Twenty-four h later the cells were treated with the peptide conjugates and incubated for an additional 24 or 48 h. Cells were incubated in the presence of 50 μM of the general caspase inhibitor BOC-Asp(Ome)-FMK (BAF) for 30 min prior to addition of peptides or with an equivalent volume of dimethylsulfoxide (DMSO) and then maintained in the presence of the same concentration of the inhibitor for the duration of the experiment. In all experiments involving Aβ, a 1 mM Aβ42 stock solution was used that had been incubated at 37° C. for 48 h and then stored at 4° C. to allow for the formation of Aβ fibrils. Aβ42 was purchased from AnaSpec (San Jose, Calif.).
(§2) Peptides were synthesized and purified at the Stanford University Protein and Nucleic Acid (PAN) Facility. All peptide stocks were solubilized in water at 1 or 10 mM concentration. […]
Hippocampal cultures were fixed in 4% paraformaldehyde in 1× phosphate-buffered saline (PBS) for 20 min at room temperature (RT). […] Images were acquired using Nikon Eclipse-800 microscope and Optronics MagnaFire camera and software, and analyzed using Compix Simple PCI software. The total surface area corresponding to red and green fluorescence in each confocal image was determined by image analysis using Simple PCI software (Compix, Inc., Philadelphia).
To investigate whether this was due to a greater sensitivity of neurons than glial cells to DP-APPC31-induced death, 3-day-old rat hippocampal cultures were exposed to increasing concentrations of DP-APPC31 or control DP peptide and fixed 48 h after transduction. […] A quantitative assessment of the total area of red and green fluorescence present in low-magnification confocal images of representative fields obtained from three independent experiments was performed using a digital image analysis system (SimplePCl, Compix, Inc, Philadelphia). […]

hippocampal neurons = experiment: Toxicity of transduced peptides to neurons in primary hippocampal cultures (NeuN immunostaining, quantitative image analysis); format: cell-based; conditions: for NeuN-immunoreactive (neuronal) population: 10 μM peptide
Protocol: as §1
(§3) Peptides were synthesized and purified at the Stanford University Protein and Nucleic Acid (PAN) Facility. All peptide stocks were solubilized in water at 1 or 10 mM concentration. […] A control peptide used was a fusion of the human immunodeficiency virus-1 TAT protein (HIV-TAT) delivery peptide sequence (Hileman et al., FEBS Lett. 415:145-154 (1997) and the first helix of the p75 receptor intracellular domain.
Hippocampal cultures were fixed in 4% paraformaldehyde in 1× phosphate-buffered saline (PBS) for 20 min at room temperature (RT). Cells were then rinsed in 1× PBS and then washed once in 1× Tris-buffered saline (TBS) followed by blocking in 10% donkey serum (Jackson ImmunoResearch Labs, West Grove, Pa.) with 0.1% Triton X-100 in 1×TBS for 1 h at RT. Cultures were incubated overnight in the presence of rabbit anti-GFAP (Sigma, St. Louis) at 1:800 dilution and mouse anti-NeuN (Chemicon, Temecula, Calif.) at 1:100 at 4° C. Negative controls were incubated in 2 mg/ml rabbit and mouse preinimune IgGs (Sigma, St. Louis). All primary antibodies were diluted in 1×TBS containing 10% donkey serum. Cultures were washed for 90 min in 4 changes of 1×TBS and incubated in the presence of donkey anti-rabbit IgG conjugated to Cy3 and donkey anti-mouse IgG conjugated to FITC (Jackson ImmunoResearch Laboratories, Inc., West Grove, Pa.), at 1:250 and 1:400, respectively, in 1×TBS containing 1% donkey serum for 1 h at RT. Cells were washed for 90 min in 4 changes of 1×TBS and mounted in VectaShield-DAPI mounting medium (Vector Laboratories, Burlingame, Calif.). Images were acquired using Nikon Eclipse-800 microscope and Optronics MagnaFire camera and software, and analyzed using Compix Simple PCI software. The total surface area corresponding to red and green fluorescence in each confocal image was determined by image analysis using Simple PCI software (Compix, Inc., Philadelphia).
To investigate whether this was due to a greater sensitivity of neurons than glial cells to DP-APPC31-induced death, 3-day-old rat hippocampal cultures were exposed to increasing concentrations of DP-APPC31 or control DP peptide and fixed 48 h after transduction. The fixed cultures were then immunostained with antibodies specific for GFAP (red) and NeuN (green). A quantitative assessment of the total area of red and green fluorescence present in low-magnification confocal images of representative fields obtained from three independent experiments was performed using a digital image analysis system (SimplePCl, Compix, Inc, Philadelphia).
APLP1C31 induces death in primary hippocampal cultures. […] If this event occurs in vivo, APLP1 would have the potential to generate a pro-apoptotic C-terminal peptide homologous to APPC31. To deterinine whether the peptide generated by caspase cleavage of APLP1 is toxic, a fusion of APLP1C31 to the Antennapedia delivery peptide (DP-APLP1C31) was generated and assayed in protein transduction experiments. […]

[1] = system: primary hippocampal cultures; experiment: Viability of primary hippocampal cultures by trypan blue exclusion; format: cell-based, rat
Protocol: as §1, §2
(§4) Aβ exacerbates the sensitivity of hippocampal cultures to C31 toxicity. […] Thirty-six hours later, the cultures were evaluated by the LIVE/DEAD assay. […] Cells were stained with Hoechst 33342 and scored for nuclear condensation.

[2] = system: 293T human embryonic kidney cells; experiment: Toxicity of C31 peptide to 293T cells; format: cell-based
Protocol: as §3
(§5) Primary hippocampal or cortical neuronal culturesor 293 cells transduced with the different penetratin-peptide conjugates were assayed for viability at 24 and 48 h after transduction by trypan blue exclusion or by conversion of 3-[4,5-Dimethylthiazol-2-yl]-2,5-diphenyltetrazolium bromide; Thiazolyl blue (MTT, Sigma, St. Louis) to formazan by dehydrogenase enzymes (MTT, Sigma, St. Louis) and by the LIVE/DEAD assay (Molecular Probes, Eugene, Oreg.), which distinguishes live cells by the presence of intracellular esterase activity, which results in the conversion of the non-fluorescent cell permeant calcein-AM to the intensely green fluorescent calcein. Calcein is retained witlin live cells. Ethidium homodimer-1 (EthD-1) enters cells with damaged membranes and becomes intensely fluorescent when bonding to nucleic acids. EthD-1 is excluded by the intact plasma membrane of live cells. Media were removed and replaced by 4 μM EthD-1 and 2 μM calcein in PBS. […]

PTB domain of Fe65 = experiment: Binding of C31 to the PTB domain of Fe65
Text: Binding assays can be used to confirm this observation with respect to the C31 peptide derived from APLP1.

[3] = system: primary hippocampal cultures; experiment: LIVE/DEAD assay (calcein / EthD-1) of primary hippocampal cultures; format: cell-based, rat; conditions: for toxicity of Aβ alone: 36 hours
Protocol: as §1, §5, §4

[4] = system: primary hippocampal cultures; experiment: Hoechst 33342 staining of condensed, fragmented (apoptotic) nuclei in primary hippocampal cultures; format: cell-based, rat; conditions: for percentage of apoptotic nuclei (Hoechst 33342): cultures preincubated with 5 μM Aβ for 24 h, then exposed to C-C31 or not
Protocol: as §1, §5, §4

[5] = system: primary hippocampal cultures; experiment: Viability of primary hippocampal cultures by MTT assay; format: cell-based, rat; conditions: increasing concentrations
Protocol: as §1
as §3, with “domain. […]” for “domain.”

[6] = synthetic peptide delivered into primary cultures

APP: wild-type human APP695 expressed from pcDNA3 by transfection
relative risk (RR) of annexin V-FITC staining with expression (N2a neuroblastoma cells): 0.77 | annexin V-positive among construct-positive cells (N2a neuroblastoma cells): 13±5%

AAVTPEERHLSKMQQNGYENPTYKFFEQMQN [C31]
CC50 (glial cells; rat, astrocytes (glial cells in primary hippocampal cultures)): 10 to 25 µM | CC50 (hippocampal neurons; primary culture, read-out: LC50 for hippocampal neurons): 1000 to 2000 nM | relative risk (RR) of annexin V-FITC staining with expression (N2a neuroblastoma cells): 6.3 | annexin V-positive among construct-positive cells (N2a neuroblastoma cells): 76±10% | CC50 ([1]; preincubation with 5 μM Aβ for 24 h, then transduction in absence of Aβ, read-out: LC50 in primary cultures pre-exposed to sublethal fibrillar Aβ): < 500 nM | CC50 [2]: 50 to 100 µM | binding to the PTB domain of Fe65 (PTB domain of Fe65): binds to the PTB domain of Fe65

CC(C)[C@H](NC(=O)OCc1ccccc1)C(=O)N[C@@H](C)C(=O)N[C@@H](CC(=O)O)C(=O)CF [zVAD.fmk, benzoxycarbonyl-Val-Ala-Asp-CH2F, reference compound] (Cbz-Val-Ala-Asp-CH2F)
effect on annexin V staining of C31 transfected cells (N2a neuroblastoma cells; zVAD.fmk treatment): decreased annexin V staining of C31 transfected cells to control levels

PMLTLEEQQLRELQRHGYENPTYRFLEERP [APLP1-C31]
LD50 for glial cells (glial cells; [6]): 35 to 40 µM | LD50 for neurons (hippocampal neurons; [6]): around 3 micromolar

COC(=O)C[C@H](NC(=O)OC(C)(C)C)C(=O)CF [BAF, BOC-Asp(Ome)-FMK, reference compound]
effect of caspase inhibitor on DP-APLP1C31 toxicity (hippocampal neurons; BAF 50 μM): delayed DP-APLP1C31 toxicity | effect of caspase inhibitor on DP-APPC31 toxicity (hippocampal neurons; BAF 50 μM, DP-APPC31 10 μM): delayed the toxicity; also recorded: blocked the toxicity

Aβ: Aβ42 purchased from AnaSpec, stock incubated to allow formation of Aβ fibrils [reference compound]
toxicity of Aβ alone ([3]; 50 μM): decrease the number of viable cells in the culture substantially | toxicity of Aβ alone ([3]; concentrations up to 25 μM): No measurable toxicity | dead cells with Aβ alone ([1]; 5 μM Aβ): did not increase the number of dead cells | percentage of apoptotic nuclei (Hoechst 33342) [4]: ~9%

CC[C@H](C)[C@H](NC(=O)[C@H](CCCCN)NC(=O)[C@@H](NC(=O)[C@H](CCC(N)=O)NC(=O)[C@H](CCCNC(=N)N)NC(=O)[C@@H](N)CSSC[C@H](N)C(=O)N[C@@H](C)C(=O)N[C@@H](C)C(=O)N[C@H](C(=O)N[C@H](C(=O)N1CCC[C@H]1C(=O)N[C@@H](CCC(=O)O)C(=O)N[C@@H](CCC(=O)O)C(=O)N[C@@H](CCCNC(=N)N)C(=O)N[C@@H](Cc1c[nH]cn1)C(=O)N[C@@H](CC(C)C)C(=O)N[C@@H](CO)C(=O)N[C@@H](CCCCN)C(=O)N[C@@H](CCSC)C(=O)N[C@@H](CCC(N)=O)C(=O)N[C@@H](CCC(N)=O)C(=O)N[C@@H](CC(N)=O)C(=O)NCC(=O)N[C@@H](Cc1ccc(O)cc1)C(=O)N[C@@H](CCC(=O)O)C(=O)N[C@@H](CC(N)=O)C(=O)N1CCC[C@H]1C(=O)N[C@H](C(=O)N[C@@H](Cc1ccc(O)cc1)C(=O)N[C@@H](CCCCN)C(=O)N[C@@H](Cc1ccccc1)C(=O)N[C@@H](Cc1ccccc1)C(=O)N[C@@H](CCC(=O)O)C(=O)N[C@@H](CCC(N)=O)C(=O)N[C@@H](CCSC)C(=O)N[C@@H](CCC(N)=O)C(=O)N[C@@H](CC(N)=O)C(=O)O)[C@@H](C)O)[C@@H](C)O)C(C)C)[C@@H](C)CC)C(=O)N[C@@H](Cc1c[nH]c2ccccc12)C(=O)N[C@@H](Cc1ccccc1)C(=O)N[C@@H](CCC(N)=O)C(=O)N[C@@H](CC(N)=O)C(=O)N[C@@H](CCCNC(=N)N)C(=O)N[C@@H](CCCNC(=N)N)C(=O)N[C@@H](CCSC)C(=O)N[C@@H](CCCCN)C(=O)N[C@@H](Cc1c[nH]c2ccccc12)C(=O)N[C@@H](CCCCN)C(=O)N[C@@H](CCCCN)C(=O)O [DP-APPC31]
glial (GFAP) population (glial cells; 10 μM peptide, 48 h after transduction): significantly reduced | NeuN-immunoreactive (neuronal) population (hippocampal neurons): significantly reduced; also recorded: markedly reduced | NeuN-immunoreactive (neuronal) population (hippocampal neurons; listed as C-C31): marked decrease | viability of hippocampal neuronal cultures ([3]; 10 μM, 24 h after transduction): marked decrease in viability | number of viable cells converting MTT into formazan [5]: reduced the number of viable cells | percentage of apoptotic nuclei (Hoechst 33342) [4]: 72% | percentage of condensed, fragmented nuclei, concentration dependence ([4]; increasing concentrations, 30 hours after transduction): increase in the percentage of condensed, fragmented nuclei
